From patent US20140135310A1, “SULPHONAMIDE DERIVATIVES OF ALICYCLIC AMINES FOR THE TREATMENT OF CENTRAL NERVOUS SYSTEM DISEASES” (Adamed Sp. z o.o., priority 2011, published 2014)

Assays:
[1] = biological target: dopaminergic receptors D2 (Homo sapiens, UniProt P14416); experiment: Radioligand binding assay, dopaminergic D2 receptors; conditions: binding assay, test compound 1×10^−6 M
Outline: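 Competition binding with scintillation counting of bound radioligand; specific binding taken as total minus non-specific binding measured with excess unlabelled ligand. IC50 obtained by Hill-equation non-linear regression of replicate-mean curves, then converted to Ki via Cheng–Prusoff using radioligand concentration and Scatchard-derived KD.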

[2] = biological target: dopaminergic receptors D3 (Homo sapiens, UniProt P35462); experiment: Radioligand binding assay, dopaminergic D3 receptors; conditions: test compound 1×10^−6 M
Outline: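 Competition radioligand binding at human D2, D3 and D4.4 receptors, detected by scintillation counting; nonspecific binding defined with excess unlabelled ligand. Results as percent inhibition of control specific binding; IC50 by Hill-equation nonlinear regression; Ki via Cheng-Prusoff, with radioligand KD from Scatchard plot.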

[3] = biological target: T1, 5-HT1A receptor (rat hippocampus) (Rattus norvegicus, UniProt P19327); experiment: Radioligand binding assay, serotoninergic 5-HT1A receptors; conditions: binding assay result in %, Table 5a;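 also: test compound at 1 µM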
T1 construct: hippocampus; from tissue; host or cells: rat hippocampus
T1 sequence (P19327 1-422): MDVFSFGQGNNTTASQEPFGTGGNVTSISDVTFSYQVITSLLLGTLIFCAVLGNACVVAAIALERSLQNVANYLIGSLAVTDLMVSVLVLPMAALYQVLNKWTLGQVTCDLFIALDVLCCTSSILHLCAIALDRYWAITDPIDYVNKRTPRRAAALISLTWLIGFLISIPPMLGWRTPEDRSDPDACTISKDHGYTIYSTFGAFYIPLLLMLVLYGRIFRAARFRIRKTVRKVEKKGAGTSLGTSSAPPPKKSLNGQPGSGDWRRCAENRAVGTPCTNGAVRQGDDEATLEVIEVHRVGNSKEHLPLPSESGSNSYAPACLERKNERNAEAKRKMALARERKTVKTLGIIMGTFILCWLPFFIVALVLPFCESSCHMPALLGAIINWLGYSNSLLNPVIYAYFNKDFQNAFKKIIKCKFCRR

5-HT2A receptor = biological target: T2, 5-HT2A receptor (Homo sapiens, UniProt P28223); experiment: Radioligand binding assay, serotoninergic 5-HT2A receptors; conditions: binding assay result in %, Table 5a
T2 construct: purchased PerkinElmer
Outline: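 Radioligand competition binding with scintillation counting; nonspecific binding defined by excess unlabelled ligand. Data as percent inhibition of control specific binding. IC50 by Hill-equation fit of competition curves; Ki by Cheng-Prusoff, with radioligand Kd from Scatchard plot.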

5-HT6 receptor = biological target: T3, 5-HT6 receptor (Homo sapiens, UniProt P50406); experiment: Radioligand binding assay, serotoninergic 5-HT6 receptors; conditions: binding assay result in %, Table 5a;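 also: test compound at 1 µM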
T3 construct: purchased PerkinElmer
Outline: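 Values are Ki from Cheng–Prusoff, taking IC50 from Hill nonlinear regression of competition curves and KD from a Scatchard plot. Specific binding was total minus binding with excess unlabelled ligand. Radioligand displacement was detected by scintillation counting, and data were also reported as percent of control specific binding.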

5-HT7 receptor = biological target: T4, 5-HT7 receptor (Homo sapiens, UniProt P34969); experiment: Radioligand binding assay, serotoninergic 5-HT7 receptors; conditions: binding assay result in %, Table 5a;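 also: test compound at 1 µM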
T4 construct: purchased PerkinElmer
Outline: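 Competition binding at human 5-HT7 receptors with a radioligand, detected by scintillation counting; non-specific binding was defined with excess unlabelled ligand. IC50 came from Hill-equation fits of competition curves, and Ki from Cheng–Prusoff using radioligand concentration and Scatchard-derived KD.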

[4] = tested on: α1 adrenergic receptors (rat cerebral cortex); experiment: Radioligand binding assay, adrenergic α1 receptors; conditions: test compound 1×10^−6 M
Outline: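 Values derive from radioligand displacement, with non-specific binding defined by excess cold ligand and detection by scintillation. Hill-fit IC50s were converted to Ki via Cheng-Prusoff using Scatchard-derived Kd; percent inhibition of control specific binding also reported.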

[5] = biological target: T5, serotonin transporter (SERT) (Homo sapiens, UniProt P31645); experiment: Radioligand binding assay, serotonin transporter (SERT); conditions: binding assay, test compound 1×10^−6 M
T5 construct: expressed in transfected cells; host or cells: CHO cells
Outline: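 Radioligand competition binding with scintillation detection; specific binding is total minus binding under excess unlabelled ligand. Reported as % of control specific binding or % inhibition; IC50 from Hill-equation non-linear regression of competition curves, and Ki via Cheng-Prusoff using radioligand concentration and Scatchard-derived KD.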

T2 sequence (P28223 whole entry): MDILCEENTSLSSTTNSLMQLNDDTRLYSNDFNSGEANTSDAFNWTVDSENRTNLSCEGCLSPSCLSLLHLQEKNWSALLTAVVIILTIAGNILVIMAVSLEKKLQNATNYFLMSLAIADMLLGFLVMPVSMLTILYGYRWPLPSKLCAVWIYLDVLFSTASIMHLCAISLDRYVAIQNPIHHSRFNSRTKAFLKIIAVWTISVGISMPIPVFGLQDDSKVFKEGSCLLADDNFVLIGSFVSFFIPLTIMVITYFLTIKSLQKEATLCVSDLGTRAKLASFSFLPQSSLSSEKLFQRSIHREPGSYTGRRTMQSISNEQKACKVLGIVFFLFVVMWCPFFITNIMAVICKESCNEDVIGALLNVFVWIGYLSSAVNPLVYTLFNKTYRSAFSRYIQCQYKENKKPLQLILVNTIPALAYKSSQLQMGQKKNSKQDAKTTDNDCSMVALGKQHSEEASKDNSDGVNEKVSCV
T5 sequence (P31645 whole entry): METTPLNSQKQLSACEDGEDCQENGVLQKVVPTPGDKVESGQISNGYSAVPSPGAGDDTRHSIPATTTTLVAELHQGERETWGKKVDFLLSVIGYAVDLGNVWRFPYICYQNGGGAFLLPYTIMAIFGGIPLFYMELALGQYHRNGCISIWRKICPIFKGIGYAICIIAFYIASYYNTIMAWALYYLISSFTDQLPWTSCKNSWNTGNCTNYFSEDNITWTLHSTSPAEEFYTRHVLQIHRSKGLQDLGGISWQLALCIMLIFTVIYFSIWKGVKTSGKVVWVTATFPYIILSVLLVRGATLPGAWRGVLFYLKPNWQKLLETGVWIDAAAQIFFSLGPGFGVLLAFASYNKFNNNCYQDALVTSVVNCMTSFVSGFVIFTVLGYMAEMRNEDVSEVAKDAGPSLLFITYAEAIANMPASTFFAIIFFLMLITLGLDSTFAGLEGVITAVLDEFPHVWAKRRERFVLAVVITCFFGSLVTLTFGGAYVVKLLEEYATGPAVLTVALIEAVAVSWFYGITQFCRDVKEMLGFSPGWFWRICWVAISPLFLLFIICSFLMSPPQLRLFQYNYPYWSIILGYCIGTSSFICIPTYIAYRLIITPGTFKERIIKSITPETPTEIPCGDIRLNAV
T3 sequence (P50406 whole entry): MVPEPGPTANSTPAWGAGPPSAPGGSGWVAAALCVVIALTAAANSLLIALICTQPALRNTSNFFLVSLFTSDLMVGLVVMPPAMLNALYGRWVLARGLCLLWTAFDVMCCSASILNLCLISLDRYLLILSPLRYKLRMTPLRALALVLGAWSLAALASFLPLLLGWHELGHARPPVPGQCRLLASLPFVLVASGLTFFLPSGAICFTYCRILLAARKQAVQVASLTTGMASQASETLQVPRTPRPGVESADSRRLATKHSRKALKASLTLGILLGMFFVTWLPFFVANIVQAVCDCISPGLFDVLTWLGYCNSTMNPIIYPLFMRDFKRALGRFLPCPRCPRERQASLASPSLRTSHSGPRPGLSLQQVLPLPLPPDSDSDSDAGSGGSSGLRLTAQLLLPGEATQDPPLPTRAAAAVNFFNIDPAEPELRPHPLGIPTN
Chain of dopaminergic receptors D2 (P14416 whole entry): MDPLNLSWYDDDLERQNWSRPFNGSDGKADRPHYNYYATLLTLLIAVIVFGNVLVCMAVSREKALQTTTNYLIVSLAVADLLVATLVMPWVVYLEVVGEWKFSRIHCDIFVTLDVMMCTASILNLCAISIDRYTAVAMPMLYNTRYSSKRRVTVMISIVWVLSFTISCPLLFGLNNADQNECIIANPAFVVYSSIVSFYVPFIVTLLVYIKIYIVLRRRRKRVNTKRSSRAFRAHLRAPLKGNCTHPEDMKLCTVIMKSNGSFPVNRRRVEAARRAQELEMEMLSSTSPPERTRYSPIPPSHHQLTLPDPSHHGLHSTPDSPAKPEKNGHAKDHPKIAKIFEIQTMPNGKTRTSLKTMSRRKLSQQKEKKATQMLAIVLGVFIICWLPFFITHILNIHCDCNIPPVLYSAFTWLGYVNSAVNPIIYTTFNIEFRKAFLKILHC
T4 sequence (P34969 whole entry): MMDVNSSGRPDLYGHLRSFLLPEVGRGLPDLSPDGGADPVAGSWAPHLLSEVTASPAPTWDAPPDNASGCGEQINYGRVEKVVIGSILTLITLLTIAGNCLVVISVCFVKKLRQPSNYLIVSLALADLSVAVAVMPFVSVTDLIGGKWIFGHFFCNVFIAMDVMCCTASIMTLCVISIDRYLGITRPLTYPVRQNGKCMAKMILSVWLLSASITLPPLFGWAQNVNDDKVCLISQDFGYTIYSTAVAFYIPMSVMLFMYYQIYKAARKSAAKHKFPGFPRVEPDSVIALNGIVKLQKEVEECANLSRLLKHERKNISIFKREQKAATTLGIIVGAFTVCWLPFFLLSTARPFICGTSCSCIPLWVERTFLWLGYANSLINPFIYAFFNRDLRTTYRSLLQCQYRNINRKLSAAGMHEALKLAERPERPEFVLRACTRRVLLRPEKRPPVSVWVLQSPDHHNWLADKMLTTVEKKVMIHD
Chain of dopaminergic receptors D3 (P35462 whole entry): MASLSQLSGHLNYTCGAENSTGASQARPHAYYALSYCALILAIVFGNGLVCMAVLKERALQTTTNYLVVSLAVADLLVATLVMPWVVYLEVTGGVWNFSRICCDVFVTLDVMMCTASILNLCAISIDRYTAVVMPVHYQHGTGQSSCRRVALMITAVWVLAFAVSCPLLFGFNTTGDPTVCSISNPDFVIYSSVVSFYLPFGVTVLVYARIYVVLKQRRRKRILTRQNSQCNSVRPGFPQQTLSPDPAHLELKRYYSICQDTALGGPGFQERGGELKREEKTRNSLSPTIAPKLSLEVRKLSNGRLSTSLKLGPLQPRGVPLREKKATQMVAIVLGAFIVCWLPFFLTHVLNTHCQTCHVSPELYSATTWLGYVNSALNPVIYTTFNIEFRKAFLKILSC

Compound | D2 [%] [1] [%] | D3 [%] [2] [%] | 5-HT1A [%] [3] [%] | 5-HT2A [%] (5-HT2A receptor) | 5-HT6 [%] (5-HT6 receptor) | 5-HT7 [%] (5-HT7 receptor) | α1 [%] [4] [%] | SERT [%] [5] [%] | inhibition at 1 µM [1] [%] | inhibition at 1 µM [2] [%] | inhibition at 1 µM [3] [%] | inhibition at 1 µM (5-HT2A receptor) [%] | inhibition at 1 µM (5-HT6 receptor) [%] | inhibition at 1 µM (5-HT7 receptor) [%] | inhibition at 1 µM [5] [%]
O=S(=O)(NC1CN(CCOc2cccc3c2OCCO3)C1)c1ccc2ccccc2c1 [Compound 95, N-[1-[2-(2,3-Dihydro-1,4-benzodioxan-8-yloxy)ethyl]azetidin-3-yl]naphthalene-2-sulphonamide] | 5 | 1 | 94 | 0 | 9 | 94 | −21 | −4 | – | – | – | – | – | – | –
O=S(=O)(NC1CCN(CCOc2cccc3ccccc23)CC1)c1ccc2ccccc2c1 [Compound 120, N-[1-[2-(1-Naphthyloxy)ethyl]-4-piperidine]naphthalene-2-sulphonamide] | −33 | 30 | 8 | 68 | 24 | 89 | −9 | 21 | – | – | – | – | – | – | –
Cn1ccc2cc(S(=O)(=O)NCC3CN(CCOc4cccc5ccccc45)C3)ccc21 [Compound 169, 1-Methyl-N-[[1-[2-(1-naphthyloxy)ethyl]azetidin-3-yl]methyl]indole-5-sulphonamide] | – | – | – | – | – | – | 74 | – | 84 | 100 | 84 | 69 | 100 | 93 | 75
N#Cc1ccc(S(=O)(=O)NC2CCN(CCCc3noc4cc(F)ccc34)C2)cc1 (centres unmarked) [Compound 210, 4-Cyano-N-[1-[3-(6-fluoro-1,2-benzoxazol-3-yl)propyl]pyrrolidin-3-yl]benzenesulphonamide] | – | – | – | – | – | – | 94 | – | 64 | 27 | 8 | 80 | 68 | 80 | 35
O=S(=O)(NCC1CN(CCOc2cccc3c2OCCO3)C1)c1ccc(I)cc1 [Compound 193, N-[[1-[2-(2,3-Dihydro-1,4-benzodioxin-5-yloxy)ethyl]azetidin-3-yl]methyl]-4-iodo-benzenesulphonamide] | – | – | – | – | – | – | 71 | – | 81 | 55 | 84 | 88 | 9 | 92 | 41
O=S(=O)(NC1CCN(CCCc2c[nH]c3ccc(Cl)cc23)C1)c1ccccc1 (centres unmarked) [Compound 81, N-[1-[3-(5-Chloro-1H-indol-3-yl)propyl]pyrrolidin-3-yl]benzene-sulphonamide] | – | – | – | – | – | – | 36 | – | 60 | 86 | 109 | 75 | 75 | 84 | 78
O=S(=O)(NC1CCN(CCCc2noc3cc(F)ccc23)C1)c1cccc(O)c1 (centres unmarked) [Compound 18, N-[1-[3-(6-Fluoro-1,2-benzoxazol-3-yl)propyl]pyrrolidin-3-yl]-3-hydroxybenzenesulphonamide] | – | – | – | – | – | – | 98 | – | 73 | 31 | 18 | 85 | 59 | 94 | 37
O=S(=O)(NCC1CN(CCOc2nsc3ccccc23)C1)c1ccc2ccccc2c1 [Compound 162, N-[[1-[2-(1,2-Benzothiazol-3-yloxy)ethyl]azetidin-3-yl]methyl]-naphthalene-2-sulphonamide] | – | – | – | – | – | – | 83 | – | 61 | 100 | 85 | -17 | -56 | 91 | -9
Cn1ccc2cc(S(=O)(=O)NCC3CN(CCCc4noc5cc(F)ccc45)C3)ccc21 [Compound 150, N-[[1-[3-(6-Fluoro-1,2-benzoxazol-3-yl)propyl]azetidin-3-yl]methyl]-1-methyl-indole-5-sulphonamide] | – | – | – | – | – | – | 98 | – | 53 | 60 | -9 | 85 | 65 | 84 | 12
O=S(=O)(NC1CCN(CCOc2cccc3[nH]ccc23)C1)c1ccccc1 (centres unmarked) [Compound 51, N-[1-[2-(1H-Indol-4-yloxy)ethyl]pyrrolidin-3-yl]benzenesulphonamide] | – | – | – | – | – | – | 77 | – | 54 | 103 | 91 | 67 | 10 | 101 | 6
O=S(=O)(NCC1CN(CCOc2cccc3ccccc23)C1)c1csc2ccccc12 [Compound 171, N-[[1-[2-(1-Naphthyloxy)ethyl]azetidin-3-yl]methyl]benzothiophene-3-sulphonamide] | – | – | – | – | – | – | 50 | – | 72 | 99 | 92 | 101 | 96 | 94 | 44
Cc1c(S(=O)(=O)NCC2CN(CCOc3cccc4ccccc34)C2)sc2ccc(F)cc12 [Compound 166, 5-Fluoro-3-methyl-N-[[1-[2-(1-naphthyloxy)ethyl]azetidin-3-yl]methyl]benzothiophene-2-sulphonamide] | – | – | – | – | – | – | 23 | – | 82 | 101 | 78 | 100 | 98 | 97 | 32
O=S(=O)(NCC1CCN(CCOc2cccc3c2OCCO3)C1)c1cccs1 (centres unmarked) [Compound 302, N-[[1-[2-(2,3-Dihydro-1,4-benzodioxin-5-yloxy)ethyl]pyrrolidin-3-yl]-methyl]thiophene-2-sulphonamide] | – | – | – | – | – | – | 63 | – | 34 | 37 | 89 | 52 | 35 | 105 | 37
O=S(=O)(NCC1CCN(CCCc2noc3cc(F)ccc23)CC1)c1cccc2ccccc12 [Compound 37, N-[[1-[3-(6-Fluoro-1,2-benzoxazol-3-yl)propyl]-4-piperidine]methyl]-naphthalene-1-sulphonamide] | 83 | 66 | 29 | 56 | 97 | 94 | 96 | 30 | – | – | – | – | – | – | –
O=S(=O)(NCC1CCN(CCCc2noc3cc(F)ccc23)C1)c1ccc(Cl)c(Cl)c1 (centres unmarked) [Compound 253, 3,4-Dichloro-N-[[1-[3-(6-fluoro-1,2-benzoxazol-3-yl)propyl]pyrrolidin-3-yl]methyl]benzenesulphonamide] | – | – | – | – | – | – | 94 | – | 87 | 55 | 34 | 99 | 101 | 97 | 12
Cc1cccc(S(=O)(=O)NC2CCN(CCOc3cccc4c3OCCO4)C2)c1 (centres unmarked) [Compound 97, N-[1-[2-(2,3-Dihydro-1,4-benzodioxan-8-yloxy)ethyl]pyrrolidin-3-yl]-3-methylbenzenesulphonamide] | 29 | 40 | 84 | 89 | 43 | 105 | 64 | −1 | – | – | – | – | – | – | –
